≈ marks a conversion by molar mass, not a printed value. Calls of active or inactive are those of the source. No cut-off for these calls is given here.
What was measured:
[1] = system: Mycobacterium tuberculosis; test: Antimycobacterial activity against Mycobacterium tuberculosis H37Rv ATCC 27294 at 100 ug/mL after 24 hrs by microplate alamar blue assay; format: functional
[2] = system: Mycobacterium tuberculosis; test: Antimycobacterial activity against Mycobacterium tuberculosis H37Rv ATCC 27294 after 24 hrs by microplate alamar blue assay; format: functional

Compound CC1(C)OC(=O)c2ccccc2-c2c(nc3ccccc3[n+]2[O-])C(=O)CC1Br (stereo unspecified) has an inhibition at 100 µg/mL [1] of 90% and an MIC [2] of 25 µg/mL (≈ 56.7 µM).
CC1(C)CCC(=O)c2nc3ccccc3nc2-c2ccccc2C(=O)O1 gave an inhibition at 100 µg/mL [1] of 90% and an MIC [2] of 0.62 µg/mL (≈ 1.79 µM).
Work on CC1(C)CCC(=O)c2nccnc2-c2ccccc2C(=O)O1 yielded an inhibition at 100 µg/mL [1] of 90% and an MIC [2] of 50 µg/mL (≈ 169 µM).
Compound CC1(C)CC(=O)c2nc3ccccc3nc2-c2ccccc2C(=O)O1 has an inhibition at 100 µg/mL [1] of 90% and an MIC [2] of 100 µg/mL (≈ 301 µM).
Work on CO[C@H]1/C=C/O[C@@]2(C)Oc3c(C)c(O)c4c(O)c(c(/C=N/N5CCN(C)CC5)c(O)c4c3C2=O)NC(=O)/C(C)=C\C=C\[C@H](C)[C@H](O)[C@@H](C)[C@@H](O)[C@@H](C)[C@H](OC(C)=O)[C@@H]1C [RIFAMPIN] yielded an MIC [2] of 1 µg/mL (≈ 1.22 µM).
CC(C)(O)CCCC1(O)C(=O)c2ccccc2-c2nc3ccccc3nc21 (stereo unspecified) was tested, and the inhibition at 100 µg/mL [1] was 90% and the MIC [2] was “inactive”.
